Data taken from patent publication US10975119B2, “Selective cysteine protease inhibitors and uses thereof” (Genesis Technologies Limited, priority 2011, dated 2021).
Where a name gives a salt, the structure may show the parent alone. Read-outs that look alike come from different tables or passages of the source.

Key:
Type in all cases: biochemical
[1] = molecular target: T1, Caspase-6 (Homo sapiens, UniProt P55212); assay: Caspase-6 inhibitor screening assay (BioVision kit, VEID-AFC); conditions: for inhibition at 10 µM: read-out: % Inhibition at 10 uM Casp6; for inhibition at 100 µM: read-out: % Inhibition at 100 uM Casp6; for IC50: read-out: IC50 Casp6
T1 construct: mixing the compounds with the respective active caspases; purchased BioVision K156-100
T1 sequence (P55212 24-179 limits assumed): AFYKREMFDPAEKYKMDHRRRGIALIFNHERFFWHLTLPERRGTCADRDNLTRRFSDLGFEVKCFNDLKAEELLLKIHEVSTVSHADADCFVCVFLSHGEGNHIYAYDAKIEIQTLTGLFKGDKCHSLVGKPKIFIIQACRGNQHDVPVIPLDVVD
T1 sequence (P55212 194-293 limits assumed): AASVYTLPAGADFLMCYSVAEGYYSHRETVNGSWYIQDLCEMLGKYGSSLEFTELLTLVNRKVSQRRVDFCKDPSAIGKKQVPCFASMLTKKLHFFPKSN
Procedure: (§1) The efficacy of an array of compounds as an inhibitor of the activity of Caspases 1 through 10 were assessed by using the respective Caspase Inhibitor Drug Screening Kits (Caspase-1 Catalog #: K151-100, Caspase-2 Catalog #: K152-100, Caspase-3 Catalog #: K153-100, Caspase-4 Catalog #: K154-100, Caspase-5 Catalog #: K155-100, Caspase-6 Catalog #: K156-100, Caspase-7 Catalog #: K157-100, Caspase-8 Catalog #: K158-100, Caspase-9 Catalog #: K159-100, Caspase-10 Catalog #: K160-100, BioVision) following the instructions of the manufacturer. […] Active caspases cleaved their respective synthetic substrates to release free AFC, which was then quantified by fluorometry.
(§2) Briefly, the compounds were first tested at 2 concentrations (10 uM and 100 uM final) to determine if there is a hit. […] Each condition was tested in duplicates. […] For some samples, a smaller range of concentrations was tested depending on the % Inhibition results at 10 uM and 100 uM. Results were summarized in Tables 2, 3, and 4 herein after. Table 2 represents the IC50 values (uM) of the test compounds as inhibitors of the activity of the various caspases.
(§3) (*) RFU (no inhibitor control)—RFU (compound at a specific concentration)
(§4) RFU (no inhibitor control)

[2] = molecular target: T2, Caspase-5 (Homo sapiens, UniProt P51878); assay: Caspase-5 inhibitor screening assay (BioVision kit, WEHD-AFC); conditions: for inhibition at 10 µM: read-out: % Inhibition at 10 uM Casp5; for inhibition at 100 µM: read-out: % Inhibition at 100 uM Casp5
T2 construct: mixing the compounds with the respective active caspases; purchased BioVision K155-100
T2 sequence (P51878 137-327 limits assumed): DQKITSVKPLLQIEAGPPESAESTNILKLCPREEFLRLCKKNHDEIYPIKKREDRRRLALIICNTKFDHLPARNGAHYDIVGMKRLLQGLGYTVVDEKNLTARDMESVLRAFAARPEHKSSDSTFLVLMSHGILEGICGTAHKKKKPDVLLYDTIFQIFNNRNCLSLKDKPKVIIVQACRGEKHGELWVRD
T2 sequence (P51878 347-434 limits assumed): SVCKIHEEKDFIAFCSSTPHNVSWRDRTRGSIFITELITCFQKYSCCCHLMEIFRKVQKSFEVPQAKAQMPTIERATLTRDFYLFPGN
Procedure: as §1, §2, §3, §4

[3] = molecular target: T3, Caspase-9 (Homo sapiens, UniProt P55211); assay: Caspase-9 inhibitor screening assay (BioVision kit, LEHD-AFC); conditions: for inhibition at 10 µM: read-out: % Inhibition at 10 uM Casp9; for inhibition at 100 µM: read-out: % Inhibition at 100 uM Casp9; for IC50: read-out: IC50 Casp9
T3 construct: purchased BioVision K159-100
T3 sequence (P55211 1-315 limits assumed): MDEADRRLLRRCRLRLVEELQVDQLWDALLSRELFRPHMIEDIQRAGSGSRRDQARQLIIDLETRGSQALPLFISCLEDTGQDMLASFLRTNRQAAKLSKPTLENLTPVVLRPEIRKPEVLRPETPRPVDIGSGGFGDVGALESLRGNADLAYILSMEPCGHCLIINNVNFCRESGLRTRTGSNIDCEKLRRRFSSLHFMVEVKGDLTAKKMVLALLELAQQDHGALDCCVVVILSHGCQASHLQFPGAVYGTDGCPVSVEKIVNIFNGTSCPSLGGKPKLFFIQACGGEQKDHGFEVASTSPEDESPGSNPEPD
T3 sequence (P55211 331-416 limits assumed): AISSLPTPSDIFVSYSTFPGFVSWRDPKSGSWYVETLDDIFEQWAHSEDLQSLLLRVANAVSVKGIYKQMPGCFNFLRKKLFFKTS
Procedure: as §1, §2, §3, §4

[4] = molecular target: T4, Caspase-7 (Homo sapiens, UniProt P55210); assay: Caspase-7 inhibitor screening assay (BioVision kit, DEVD-AFC); conditions: for inhibition at 10 µM: read-out: % Inhibition at 10 uM Casp7; for inhibition at 100 µM: read-out: % Inhibition at 100 uM Casp7; for IC50: read-out: IC50 Casp7
T4 construct: mixing the compounds with the respective active caspases; purchased BioVision K157-100
T4 sequence (P55210 24-198 limits assumed): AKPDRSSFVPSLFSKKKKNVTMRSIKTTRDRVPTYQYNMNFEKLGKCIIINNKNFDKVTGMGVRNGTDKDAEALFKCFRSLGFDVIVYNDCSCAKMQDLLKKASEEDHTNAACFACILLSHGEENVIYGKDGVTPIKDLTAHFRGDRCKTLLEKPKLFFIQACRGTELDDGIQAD
T4 sequence (P55210 207-303 limits assumed): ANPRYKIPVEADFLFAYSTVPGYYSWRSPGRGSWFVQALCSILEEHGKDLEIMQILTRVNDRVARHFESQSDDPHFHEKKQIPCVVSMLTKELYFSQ
Procedure: as §1, §2, §3, §4

[5] = molecular target: T5, Caspase-10 (Homo sapiens, UniProt Q92851); assay: Caspase-10 inhibitor screening assay (BioVision kit, AEVD-AFC); conditions: for inhibition at 10 µM: read-out: % Inhibition at 10 uM Casp10; for inhibition at 100 µM: read-out: % Inhibition at 100 uM Casp10; for IC50: read-out: IC50 Casp10
T5 construct: mixing the compounds with the respective active caspases; purchased BioVision K160-100
T5 sequence (Q92851 220-415 limits assumed): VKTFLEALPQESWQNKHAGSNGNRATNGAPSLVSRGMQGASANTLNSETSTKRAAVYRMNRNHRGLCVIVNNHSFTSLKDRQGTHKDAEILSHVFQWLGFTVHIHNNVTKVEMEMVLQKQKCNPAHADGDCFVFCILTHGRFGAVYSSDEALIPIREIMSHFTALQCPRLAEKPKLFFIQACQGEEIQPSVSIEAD
T5 sequence (Q92851 416-521 limits assumed): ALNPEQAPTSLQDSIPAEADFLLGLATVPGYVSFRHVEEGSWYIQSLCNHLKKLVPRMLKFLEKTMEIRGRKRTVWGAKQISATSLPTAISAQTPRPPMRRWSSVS
Procedure: as §1, §2, §3, §4

[6] = molecular target: T6, Caspase-1 (Homo sapiens, UniProt P29466); assay: Caspase-1 inhibitor screening assay (BioVision kit, YVAD-AFC); conditions: for inhibition at 10 µM: read-out: % Inhibition at 10 uM Casp1; for inhibition at 100 µM: read-out: % Inhibition at 100 uM Casp1
T6 construct: mixing the compounds with the respective active caspases; purchased BioVision K151-100
T6 sequence (P29466 120-297 limits assumed): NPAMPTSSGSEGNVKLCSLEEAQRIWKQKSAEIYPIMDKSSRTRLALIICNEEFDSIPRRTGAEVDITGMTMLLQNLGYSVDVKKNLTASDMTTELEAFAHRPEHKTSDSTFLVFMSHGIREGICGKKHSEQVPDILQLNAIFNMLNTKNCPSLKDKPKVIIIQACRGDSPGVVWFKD
T6 sequence (P29466 317-404 limits assumed): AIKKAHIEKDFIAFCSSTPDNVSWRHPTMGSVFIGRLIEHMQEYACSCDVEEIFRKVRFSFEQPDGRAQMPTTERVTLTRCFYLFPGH
Procedure: as §1, §2, §3, §4

Compound | inhibition at 10 µM [1] [%] | inhibition at 100 µM [1] [%] | IC50 [1] [µM] | inhibition at 10 µM [2] [%] | inhibition at 100 µM [2] [%] | IC50 ([2]; read-out: IC50 Casp5) [µM] | inhibition at 10 µM ([3]; 10 uM) [%] | inhibition at 100 µM ([3]; 100 uM) [%] | IC50 [3] [µM] | inhibition at 10 µM ([4]; 10 uM) [%] | inhibition at 100 µM ([4]; 100 uM) [%] | IC50 [4] [µM] | inhibition at 10 µM [5] [%] | inhibition at 100 µM [5] [%] | IC50 [5] [µM] | inhibition at 10 µM [6] [%] | inhibition at 100 µM [6] [%] | IC50 ([6]; read-out: IC50 Casp1) [µM] | other results
CC(C)[C@H](NC(=O)OCc1ccccc1)C(=O)N[C@H](/C=C/S(C)(=O)=O)CC(=O)O [Compound 3, Z-Val-Asp methyl vinyl sulfone] | 0 | 0 | > 100 | 0 | 0 | > 100 | 0 | 17 | > 100 | 0 | 9 | > 100 | 15 | 50 | > 100 | 18 | 26 | > 100 | 
CS(=O)(=O)/C(Cl)=C/[C@@H](N)CC(=O)O [Compound 4, Asp achlorovinyl methyl vinyl sulfone, Tosyl Salt] | 0 | 0 | > 100 | 0 | 1 | > 100 |  |  | > 100 |  |  | > 100 | 36 | 43 | > 100 | 0 | 0 | > 100 | inhibition at 10 µM [3]: 0%; inhibition at 100 µM [3]: 0%; inhibition at 10 µM [4]: 0%; inhibition at 100 µM [4]: 0%
CC(C)(C)[C@H](NC(=O)c1ccc2ccccc2n1)C(=O)N1CCC[C@@H]1C(=O)N[C@H](/C=C/S(C)(=O)=O)CC(=O)O [Compound 6, 2-Quinoline carbonyl-t-Leu-pro-Asp methyl vinyl sulfone] | 0 | 3 | > 100 | 86 | 99 |  | 1 | 51 | ~100 | 0 | 2 | > 100 | 3 | 74 | 56 | 98 | 100 | 0.04 | IC50 ([2]; read-out: potency (IC50) against caspase-5): 2.32 µM; IC50 ([6]; read-out: potency (IC50) against caspase-1): 0.042 µM
CC(C)[C@H](NC(=O)c1ccc2ccccc2n1)C(=O)N[C@H](/C=C/S(C)(=O)=O)CC(=O)O [Compound 16, 2-Quinoline carbonyl-Val-Asp methyl vinyl sulfone] | 0 | 0 | > 100 | 0 | 10 | > 100 | 0 | 0 | > 100 | 3 | 19 | > 100 | 26 | 35 | > 100 | 0 | 0 | > 100 | 
CS(=O)(=O)/C=C/[C@H](CC(=O)O)NC(=O)[C@H](CCC(=O)O)NC(=O)c1ccc2ccccc2n1 [Compound 18, 2-Quinoline carbonyl-Glu-Asp methyl vinyl sulfone] | 0 | 8 | > 100 | 0 | 1 | > 100 | 0 | 9 | > 100 | 0 | 7 | > 100 | 14 | 0 | > 100 | 1 | 1 | > 100 | 
CC(C)(C)[C@H](NC(=O)c1ccc2ccccc2n1)C(=O)N1CC[C@@H]1C(=O)N[C@H](/C=C/S(C)(=O)=O)CC(=O)O [Compound 20, 2-Quinoline carbonyl-t-Leu-(Azetidine-2-carbonyl)-Asp methyl vinyl sulfone] | 0 | 0 | > 100 | 55 | 96 | 8.39 | 8 | 44 | > 100 | 0 | 0 | > 100 | 42 | 93 | 12.5 | 81 | 99 | 1.4 | 
CC(C)(C)OC(=O)CC[C@H](NC(=O)OC(C)(C)C)C(=O)N[C@H](/C=C/S(C)(=O)=O)CC(=O)OC(C)(C)C [Compound 21, Boc-Glu(O—tBu)-Asp (O—tBu)-methyl vinyl sulfone] | 1 | 10 | > 100 | 3 | 7 | > 100 | 1 | 10 | > 100 | 0 | 0 | > 100 | 0 | 0 | > 100 | 2 | 2 | > 100 | 
